Read-outs that look alike come from different tables or passages of the source. Residues, ends and D or L forms follow the SMILES beside them.
Molecular target: T1, c-Cbl (RING) protein (Homo sapiens, UniProt P22681)
T1 construct: c-Cbl (RING) protein including the linker and RING domain (codon 358–457) was tagged with glutathione S-transferase (GST); GST; made in house
T1 sequence (P22681 358-457): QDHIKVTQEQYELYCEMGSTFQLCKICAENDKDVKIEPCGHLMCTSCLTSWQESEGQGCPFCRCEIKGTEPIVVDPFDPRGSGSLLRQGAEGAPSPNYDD
Experiment: Competitive FP assay/screen: displacement of probe 1 from c-Cbl (RING) protein
Format: binding
Conditions: for Outcome in detergent-present screen: detergent-present screen (0.01% Triton X-100); for Hit verification outcome: hits from detergent-free screen, more extensive competitive binding assays
Method: Assays were carried out in detergent-free buffer system (PBS, pH = 7.4) or detergent-present buffer system (0.01% Triton X-100 in PBS, pH = 7.4). All FP measurements were made on 384-well, low-volume, black, v-bottom polystyrene microplates (Corning, Shanghai, China) using the ZS-2 plate reader. The binding affinities of fluorescein-labeled peptides/regulators binding to c-Cbl (RING) protein were verified by titrating an increasing concentration of protein into a constant concentration of labeled peptides. […] The total fluorescence (TF) values were also measured. The change in polarization was graphed as a function of the log of the protein concentration, and the dissociation constant (Kd) and the change in mP (ΔmP) were obtained from the resulting sigmoidal curve. The concentrations of fluorescein-labeled peptide and proteins were optimized.
Unlabeled short peptide was titrated against the FITC-labeled peptide (100 nmol/L) and protein (3 µmol/L) mixture. Plates were incubated at room temperature for up to 3 hours or 30 min at different temperatures.
Master mixtures containing fluorescein-labeled probe and Cbl (RING) protein Cbl (RING) protein, 3 µmol/L and probe 1 at 100 nmol/L) in a reaction volume of 19 µl were prepared and loaded to plates. The library compounds (10 µmol/L – 0.078 µmol/L, half dilutions) were prepared separately and transferred into the assay plates. The first and last columns of each plate were used as positive and negative control wells. Wells containing the drug only were used as controls to detect auto-fluorescence of the compounds in the total fluorescence assay. After subtraction of the background signal, data was processed and the IC50 values were determined by non-linear least square fitting (four parameters) using SigmaPlot 11.0.
Hits were validated using the primary screening assay conditions in triplicate.

[1] = primary screen, detergent-free system, 10 to 0.078 µmol/L, 5% DMSO, read-out: IC50 Primary screen DF
[2] = primary screen, detergent-present system (0.01% Triton X-100), 10 to 0.078 µmol/L, 5% DMSO, read-out: IC50 Primary screen DP
[3] = validated in triplicate, detergent-free system, read-out: IC50 Validated DF
[4] = validated in triplicate, detergent-present system (0.01% Triton X-100), NR: no dose response, read-out: IC50 Validated DP

| Molecule | IC50 [1] | IC50 [2] | IC50 [3] | IC50 [4] | Outcome in detergent-present screen | Hit verification outcome | other results |
| --- | --- | --- | --- | --- | --- | --- | --- |
| C[C@]1(O)C[C@@H](O)[C@@H]2C=CO[C@@H](O[C@@H]3O[C@H](CO)[C@@H](O)[C@H](O)[C@H]3O)[C@@H]21 [Leonuride] | 3.5 µM | 3.8 µM | 4.6 ± 0.8 µM | 4.5 ± 1.1 µM | – | – | IC50 (primary screen, detergent-free system, 10 to 0.078 µmol/L, 5% DMSO, listed as leonuride, read-out: IC50 Primary screen DF): < 5 µM |
| CO[C@]1(CC[C@@H](C)CO[C@@H]2O[C@H](CO)[C@@H](O)[C@H](O)[C@H]2O)O[C@H]2C[C@H]3[C@@H]4CC=C5C[C@@H](O[C@@H]6O[C@H](CO)[C@@H](O[C@@H]7O[C@@H](C)[C@H](O)[C@@H](O)[C@H]7O)[C@H](O)[C@H]6O[C@@H]6O[C@@H](C)[C@H](O)[C@@H](O)[C@H]6O)CC[C@]5(C)[C@H]4CC[C@]3(C)[C@H]2[C@@H]1C [Methylprotodioscin] | 4.8 µM | 4 µM | 4.2 ± 0.5 µM | 4 ± 0.8 µM | – | – | – |
| CC(=O)N1CCC[C@H]1C(=O)N[C@@H](Cc1ccccc1)C(=O)N[C@@H](CCCCN)C(=O)N1CCC[C@H]1C(=O)N1CCC[C@H]1C(N)=O [Peptide 1, Ac-PFKPP-NH2] (Ac-PFKPP-NH2) | – | – | – | – | – | – | IC50 (detergent-free system, c-Cbl (RING) protein 3 µmol/L + 100 nmol/L probe 1, read-out: IC50, unlabeled peptide competing with probe 1): 1.05 ± 0.09 µM; IC50 (detergent-present system (0.01% Triton X-100), c-Cbl (RING) protein 3 µmol/L + 100 nmol/L probe 1, read-out: IC50, unlabeled peptide competing with probe 1): 1.06 ± 0.09 µM |
| CC(=O)N1CCC[C@H]1C(=O)N[C@@H](C)C(=O)N[C@@H](CCCCN)C(=O)N1CCC[C@H]1C(=O)N1CCC[C@H]1C(N)=O [Peptide 2, Ac-PAKPP-NH2] (Ac-PAKPP-NH2) | – | – | – | – | – | – | Effect of unlabeled peptide on FP values (detergent-free system, c-Cbl (RING) protein 3 µmol/L + 100 nmol/L probe 1): does not alter the FP values |
| O=c1c(O)c(-c2ccc(O)c(O)c2)oc2cc(O)cc(O)c12 [Quercetin] | – | – | – | – | negative | false positive hits | – |
| Tehmaglutin | 5 µM | > 10 µM | 4.7 ± 0.4 µM | > 10 µM | negative | false positive hits | IC50 (primary screen, detergent-free system, 10 to 0.078 µmol/L, 5% DMSO, listed as tehmaglutin, read-out: IC50 Primary screen DF): < 5 µM |

From paper PMC3814989, “Development of a Fluorescence Polarization Based High-Throughput Assay to Identify Casitas B-Lineage Lymphoma RING Domain Regulators” (PLoS ONE, 2013)
